Source: patent EP1792902A1, “Processes for preparation of 5-(6-quinazolinyl)-furan-2-carbaldehydes” (priority 2000, dated 2002)

Legend:
[1] = tested on: gastric tumor (N87) cell lines; test: Methylene Blue Growth Inhibition Assay, N87; format: cell-based; conditions: Homo sapiens, 72 h; 3 days incubation, methylene blue staining
Method: (§1) Human breast (BT474), head and neck (HN5) and gastric tumor (N87) cell lines and human foreskin Fibroblasts (HFF) were cultured in low glucose DMEM (Life Technologies 12320-032) containing 10% fetal bovine serum (FBS) at 37°C in a humidified 10% CO2, 90% air incubator. The SV40 transformed human mammary epithelial cell line HB4a was transfected with either human H-ras cDNA (HB4a r4.2) or the human c-erbB2 cDNA (HB4a c5.2). The HB4a clones were cultured in RPMI containing 10% FBS, insulin (5 µg/ml), hydrocortisone (5 µg/ml), supplemented with the selection agent hygromycin B (50µg/ml). Cells were harvested using trypsin/EDTA, counted using a haemocytometer, and plated in […] of the appropriate media, at the following densities, in a 96-well tissue culture plate (Falcon 3075): BT474 10,000 cells/well, HN5 3,000 cells/well, N87 10,000 cells/well, HB4a c5.2 3,000 cells/well, HB4a r4.2 3,000 cells/well, HFF 2500 cells/well. The next day, compounds were diluted in DMEM containing […] gentamicin, at twice the final required concentration, from 10mM stock solutions in DMSO. […]/well of these dilutions were added to the 100ml of media currently on the cell plates. Medium containing 0.6% DMSO was added to control wells. Compounds diluted in DMEM were added to all cell lines, including the HB4a r4.2 and HB4a c5.2 cell lines. The final concentration of DMSO in all wells was 0.3%. Cells were incubated at 37°C, 10% CO2 for 3 days. Medium was removed by aspiration. Cell biomass was estimated by staining cells with 100µl per well methylene blue (Sigma M9140, 0.5% in 50:50 ethanol:water), and incubation at room temperature for at least 30 minutes. Stain was removed, and the plates rinsed under a gentle stream of water, and air-dried. To release stain from the cells 100µl of solubilization solution was added (1% N-lauroyl sarcosine, Sodium salt, Sigma L5125, in PBS), and plates were shaken gently for about 30 minutes. Optical density at 620 nm was measured on a microplate reader. Percent inhibition of cell growth was calculated relative to vehicle treated control wells. […]

breast (BT474) = test: Methylene Blue Growth Inhibition Assay, BT474; format: cell-based; conditions: Homo sapiens, BT-474, 72 h; 3 days incubation, methylene blue staining; read-out: BT474 IC50 uM Cell
Method: as §1

head and neck (HN5) = test: Methylene Blue Growth Inhibition Assay, HN5; format: cell-based; conditions: Homo sapiens, 72 h; 3 days incubation, methylene blue staining; read-out: HN5 IC50 uM Cell
Method: as §1

[2] = Slurry equilibration method, relative physical stability of anhydrate and monohydrate crystal forms; conditions: for Equilibrium Form: 25°C, pXRD
c-erbB-2 = target: T1, c-erbB-2 (Homo sapiens, UniProt P04626); test: Substrate phosphorylation assay, erbB2 tyrosine kinase inhibition; format: biochemical; conditions: tested in buffered solution
T1 construct: recombinant constructs of the intracellular domains of c-erbB-2 and c-erbB-4 that are constitutively active; made in house
T1 sequence (P04626 676-1255 limits assumed): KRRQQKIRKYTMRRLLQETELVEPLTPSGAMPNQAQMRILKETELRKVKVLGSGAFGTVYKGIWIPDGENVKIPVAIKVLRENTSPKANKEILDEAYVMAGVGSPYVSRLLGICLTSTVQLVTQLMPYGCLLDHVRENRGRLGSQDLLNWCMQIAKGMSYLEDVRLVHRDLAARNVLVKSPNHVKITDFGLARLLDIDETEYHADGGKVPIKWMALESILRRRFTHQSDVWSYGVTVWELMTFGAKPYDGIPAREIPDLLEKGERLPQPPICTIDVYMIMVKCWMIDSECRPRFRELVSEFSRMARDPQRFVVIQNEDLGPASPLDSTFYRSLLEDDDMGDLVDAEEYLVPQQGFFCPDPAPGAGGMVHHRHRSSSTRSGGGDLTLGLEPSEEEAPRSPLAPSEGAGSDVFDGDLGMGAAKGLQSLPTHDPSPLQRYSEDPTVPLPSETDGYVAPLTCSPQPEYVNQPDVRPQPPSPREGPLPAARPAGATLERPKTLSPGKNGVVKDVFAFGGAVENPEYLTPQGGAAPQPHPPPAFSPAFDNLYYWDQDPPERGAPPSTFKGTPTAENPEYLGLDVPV
Source text: (§2) The substrate phosphorylation assays use baculovirus expressed, recombinant constructs of the intracellular domains of c-erbB-2 and c-erbB-4 that are constitutively active and EGFr isolated from solubilised A431 cell membranes. The method measures the ability of the isolated enzymes to catalyse the transfer of the g-phosphate from ATP onto tyrosine residues in a biotinylated synthetic peptide (Biotin-[…]. Substrate phosphorylation was detected following either of the following two procedures: • a.) c-ErbB-2, c-ErbB4 or EGFr were incubated for 30 minutes, at room temperature, with 10mM MnCl2, […], and test compound (diluted from a 5mM stock in DMSO, final DMSO concentration is 2%) in 40mM HEPES buffer, pH 7.4. The reaction was stopped by the addition of EDTA (final concentration 0.15mM) and a sample was transferred to a streptavidin-coated 96-well plate. The plate was washed and the level of phosphotyrosine on the peptide was determined using a Europium-labelled antiphosphotyrosine antibody and quantified with a time-resolved fluorescence technique. • b.) ErbB2 was incubated for 50 minutes at room temperature with 15 mM MnCl2, 2 mM ATP, 0.25 mCi [g-^33P] […] The SPA signal was measured using a Packard Topcount 96-well plate scintillation counter (Packard Instrument Co., Meriden, CT).

[3] = target: EGFr isolated from solubilised A431 cell membranes (Homo sapiens, UniProt P00533); test: Substrate phosphorylation assay, EGFR tyrosine kinase inhibition; format: biochemical; conditions: tested in buffered solution
EGFr isolated from solubilised A431 cell membranes, sequence (P00533 25-1210): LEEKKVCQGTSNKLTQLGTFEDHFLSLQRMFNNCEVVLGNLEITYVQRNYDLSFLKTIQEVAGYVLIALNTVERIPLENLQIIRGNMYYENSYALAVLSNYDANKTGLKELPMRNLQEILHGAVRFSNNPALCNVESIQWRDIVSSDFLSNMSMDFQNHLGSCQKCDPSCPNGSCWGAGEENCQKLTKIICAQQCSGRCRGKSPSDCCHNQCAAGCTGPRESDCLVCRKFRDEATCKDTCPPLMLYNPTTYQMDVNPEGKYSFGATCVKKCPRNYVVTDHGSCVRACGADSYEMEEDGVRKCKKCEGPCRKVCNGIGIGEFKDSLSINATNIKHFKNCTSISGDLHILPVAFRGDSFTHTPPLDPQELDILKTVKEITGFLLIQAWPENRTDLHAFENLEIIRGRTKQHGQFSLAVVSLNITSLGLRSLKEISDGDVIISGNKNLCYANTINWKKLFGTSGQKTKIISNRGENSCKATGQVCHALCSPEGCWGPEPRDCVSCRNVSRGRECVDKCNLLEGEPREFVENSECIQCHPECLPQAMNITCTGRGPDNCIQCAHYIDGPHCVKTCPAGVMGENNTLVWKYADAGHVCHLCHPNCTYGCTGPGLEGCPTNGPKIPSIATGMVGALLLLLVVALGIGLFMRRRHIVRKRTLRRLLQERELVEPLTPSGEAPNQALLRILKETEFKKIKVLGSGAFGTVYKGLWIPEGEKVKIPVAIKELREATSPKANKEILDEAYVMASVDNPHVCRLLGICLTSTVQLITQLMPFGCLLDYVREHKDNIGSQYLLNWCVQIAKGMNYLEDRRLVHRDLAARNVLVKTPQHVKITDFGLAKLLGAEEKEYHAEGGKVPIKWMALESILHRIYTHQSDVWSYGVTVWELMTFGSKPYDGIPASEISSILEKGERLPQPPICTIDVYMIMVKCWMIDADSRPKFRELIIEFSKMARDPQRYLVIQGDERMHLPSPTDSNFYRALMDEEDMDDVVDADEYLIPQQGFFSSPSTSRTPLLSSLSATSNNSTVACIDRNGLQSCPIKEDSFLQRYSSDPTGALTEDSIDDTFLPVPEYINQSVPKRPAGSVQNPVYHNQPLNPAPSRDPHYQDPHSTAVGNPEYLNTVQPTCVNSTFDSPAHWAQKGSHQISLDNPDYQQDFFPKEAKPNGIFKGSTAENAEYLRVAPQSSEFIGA
Source text: as §2

c-erbB-4 = target: T2, c-erbB-4 (Homo sapiens, UniProt Q15303); test: Substrate phosphorylation assay, erbB4 tyrosine kinase inhibition; format: biochemical; conditions: tested in buffered solution
T2 construct: recombinant constructs of the intracellular domains of c-erbB-2 and c-erbB-4 that are constitutively active; made in house
T2 sequence (Q15303 676-1308 limits assumed): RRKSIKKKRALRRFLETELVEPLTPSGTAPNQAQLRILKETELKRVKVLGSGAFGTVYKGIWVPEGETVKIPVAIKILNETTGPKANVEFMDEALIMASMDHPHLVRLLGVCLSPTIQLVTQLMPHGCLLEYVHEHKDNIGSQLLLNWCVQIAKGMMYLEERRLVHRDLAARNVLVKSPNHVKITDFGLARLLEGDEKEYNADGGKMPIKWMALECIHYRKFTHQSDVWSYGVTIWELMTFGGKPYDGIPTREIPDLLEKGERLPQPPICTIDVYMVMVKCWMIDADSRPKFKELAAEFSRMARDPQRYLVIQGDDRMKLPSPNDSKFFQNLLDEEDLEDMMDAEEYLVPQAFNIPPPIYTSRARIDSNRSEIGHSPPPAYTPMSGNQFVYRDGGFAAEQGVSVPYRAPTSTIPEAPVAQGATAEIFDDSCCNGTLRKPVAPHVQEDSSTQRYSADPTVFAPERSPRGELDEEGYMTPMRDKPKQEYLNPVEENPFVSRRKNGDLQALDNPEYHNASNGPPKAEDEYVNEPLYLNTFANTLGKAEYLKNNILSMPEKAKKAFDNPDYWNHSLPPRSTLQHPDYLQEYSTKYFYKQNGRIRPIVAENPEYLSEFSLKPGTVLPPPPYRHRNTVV
Source text: as §2

[4] = Moisture sorption testing; format: physicochemical; conditions: at the humidities to which it might be exposed (e.g., 20-75% relative humidity (RH))
Method: Approximately 12 mg of N-{3-Chloro-4-[(3-fluorobenzyl) oxy]phenyl}-6-[5-({[2-(methanesulphonyl)ethyl] amino}methyl)-2-furyl]-4-quinazolinamine ditosylate monohydrate salt prepared according to Example 10 was weighed into a sample pan of a moisture sorption apparatus (model number SGA-100, made by VTI). The sample was dried at 60°C under a nitrogen stream until the weight loss was less than 0.015% in 5 minutes. The relative humidity (RH) was then increased (adsorption) to 5, 15, 25, 35, 45, 55, 65, 75, 85 and 95% - at each step, equilibrium was defined as a weight change of less than 0.015% in 5 minutes. The relative humidity was then decreased (desorption) to 90, 80, 70, 60, 50, 40, 30, and 20% with the same equilibrium condition. The sorption curve (y-axis: Weight - % change vs. x-axis: % RH) is depicted in Figure 3(a).
Approximately 15 mg of N-{3-Chloro-4-[(3-fluorobenzyl) oxy]phenyl}-6-[5-({[2-(methanesulphonyl)ethyl]amino}methyl)-2-furyl]-4-quinazolinamine di-HCl salt was weighed into a sample pan of a moisture sorption apparatus (model number SGA-100 , made by VTI). The sample was dried at 60°C under a nitrogen stream until the weight loss was less than 0.015% in 5 minutes. The relative humidity was then increased (adsorption) to 5, 15, 25, 35, 45, 55, 65, 75, 85 and 95% - at each step, equilibrium was defined as a weight change of less than 0.015% in 5 minutes. […]

Structure (SMILES) | IC50 [1] | IC50 (breast (BT474)) | IC50 (head and neck (HN5)) | IC50 (c-erbB-2) | IC50 [3] | IC50 (c-erbB-4) | further results
CS(=O)(=O)CCNCc1ccc(-c2ccc3ncnc(Nc4ccc(OCc5cccc(F)c5)c(Cl)c4)c3c2)o1 [Example 8, N-{3-Chloro-4-[(3-fluorobenzyl)oxy]phenyl}-6-[5({[2-(methanesulphonyl)ethyl]amino}methyl)-2-furyl]-4-quinazolinamine ditosylate anhydrate] | < 5 µM | < 5 µM | < 5 µM | – | – | – | –
CS(=O)(=O)CCNCc1ccc(-c2ccc3ncnc(Nc4ccc(OCc5cccc(F)c5)c(Cl)c4)c3c2)o1 [Example 10, N-{3-Chloro-4-[(3-f/uorobenzyl)oxy]phenyl}-6-[5-({[2-(methanesulphonyl)ethyl]amino}methyl)-2-furyl]-4-quinazolinamine ditosylate monohydrate] | – | – | – | – | – | – | RH at which the monohydrate becomes the thermodynamically stable form ([2]; remains stable up through 100% RH, slurry equilibration at 25°C): 7 - 15 % RH
CS(=O)(=O)CCNCc1ccc(-c2ccc3ncnc(Nc4ccc(OCc5cccc(F)c5)c(Br)c4)c3c2)o1 [Example 12, (4-(3-Fluoro-benzyloxy)-3-bromophenyl)-(6-(5-((2-methanesulphonyl-ethylamino)-methyl)-furan-2 yl)quinazolin-4 yl)-amine ditosylate] | < 5 µM | < 5 µM | < 5 µM | < 0.1 µM | < 0.1 µM | 1 to 10 µM | –
CS(=O)(=O)CCNCc1nc(-c2ccc3ncnc(Nc4ccc(OCc5cccc(F)c5)c(Cl)c4)c3c2)cs1 [Example 13, (4-(3-Fluoro-benzyloxy)-3-chlorophenyl)-(6-(2-((2-methanesulphonyl-ethylamino)-methyl)-thiazol-4-yl)quinazolin-4-yl)-amine ditosylate] | < 5 µM | < 5 µM | < 5 µM | < 0.1 µM | < 0.1 µM | 0.1 to 1 µM | –
CS(=O)(=O)CCNCc1ccc(-c2ccc3ncnc(Nc4ccc(OCc5cccc(F)c5)c(Cl)c4)c3c2)o1.Cc1ccc(S(=O)(=O)O)cc1.Cc1ccc(S(=O)(=O)O)cc1 [N-{3-Chloro-4-[(3-fluorobenzyl)oxy]phenyl}-6-[5-({[2-(methanesulphonyl)ethyl]amino}methyl)-2-furyl]-4-quinazolinamine ditosylate] | – | – | – | – | – | – | Equilibrium Form ([2]; RH 0 %, Water Volume 0 %, Water Mole Fraction 0.00, 1:1 anhydrate/monohydrate slurry in MeOH/H2O): Anhydrate; Equilibrium Form ([2]; RH 7 %, Water Volume 2 %, Water Mole Fraction 0.04, 1:1 anhydrate/monohydrate slurry in MeOH/H2O): Anhydrate; Equilibrium Form ([2]; RH 15 %, Water Volume 5 %, Water Mole Fraction 0.11, 1:1 anhydrate/monohydrate slurry in MeOH/H2O): Monohydrate; Equilibrium Form ([2]; RH 26 %, Water Volume 10 %, Water Mole Fraction 0.20, 1:1 anhydrate/monohydrate slurry in MeOH/H2O): Monohydrate; Equilibrium Form ([2]; RH 43 %, Water Volume 20 %, Water Mole Fraction 0.36, 1:1 anhydrate/monohydrate slurry in MeOH/H2O): Monohydrate; Equilibrium Form ([2]; RH 66 %, Water Volume 40 %, Water Mole Fraction 0.60, 1:1 anhydrate/monohydrate slurry in MeOH/H2O): Monohydrate; Equilibrium Form ([2]; RH 80 %, Water Volume 60 %, Water Mole Fraction 0.77, 1:1 anhydrate/monohydrate slurry in MeOH/H2O): Monohydrate; Equilibrium Form ([2]; RH 91 %, Water Volume 80 %, Water Mole Fraction 0.90, 1:1 anhydrate/monohydrate slurry in MeOH/H2O): Monohydrate; Equilibrium Form ([2]; RH 95 %, Water Volume 90 %, Water Mole Fraction 0.95, 1:1 anhydrate/monohydrate slurry in MeOH/H2O): Monohydrate; Equilibrium Form ([2]; RH 100 %, Water Volume 100 %, Water Mole Fraction 1.00, 1:1 anhydrate/monohydrate slurry): Monohydrate
CS(=O)(=O)CCNCc1ccc(-c2ccc3ncnc(Nc4ccc(OCc5cccc(F)c5)c(Cl)c4)c3c2)o1.Cl.Cl [di-HCl salt, N-{3-Chloro-4-[(3-fluorobenzyl)oxy]phenyl}-6-[5-({[2-(methanesulphonyl)ethyl]amino}methyl)-2-furyl]-4-quinazolinamine di-HCl salt] | – | – | – | – | – | – | water sorption [4]: sorbs very large amounts of water
